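Growth conditions: 96-well plates. Treatment: test compound, 48 hours, 5 concentrations. Analysis: linear interpolation between bracketing concentrations; unreached endpoints set to highest concentration. GI50 = concentration required for 50% inhibition of growth.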 The source made the active and inactive calls. No stated cut-off is given here; in the data, active = GI50 up to about 1.1 µM and inactive = higher.
Columns and labels:
Assay in all cases: growth of human tumour cells (NCI), 48 h
[1] = test system: M14
[2] = test system: HL-60
[3] = test system: KM12
[4] = test system: CAKI-1
[5] = test system: RPMI-8226
[6] = test system: SN12C
[7] = test system: SW-620
[8] = test system: SF-295
[9] = test system: HT-29
[10] = test system: IGROV-1
[11] = test system: SR
[12] = test system: U-251
[13] = test system: SNB-19
[14] = test system: SK-OV-3
[15] = test system: CCRF-CEM
[16] = test system: SK-MEL-28
[17] = test system: SF-268
[18] = test system: A549
[19] = test system: HCT-116
[20] = test system: SF-539

SMILES | GI50 [1] | GI50 [2] | GI50 [3] | GI50 [4] | GI50 [5] | GI50 [6] | GI50 [7] | GI50 [8] | GI50 [9] | GI50 [10] | GI50 [11] | GI50 [12] | GI50 [13] | GI50 [14] | GI50 [15] | GI50 [16] | GI50 [17] | GI50 [18] | GI50 [19] | GI50 [20]
C=C(Br)CN(C)CC(=C)Br | > 100 µM (inactive) | > 100 µM (inactive) | > 100 µM (inactive) | > 100 µM (inactive) | > 100 µM (inactive) | > 100 µM (inactive) | > 100 µM (inactive) | > 100 µM (inactive) | > 100 µM (inactive) | > 100 µM (inactive) | > 100 µM (inactive) | > 100 µM (inactive) | > 100 µM (inactive) | > 100 µM (inactive) | > 100 µM (inactive) | > 100 µM (inactive) | > 100 µM (inactive) | > 100 µM (inactive) | > 100 µM (inactive) | 
O=C1[C@@H]2[C@@H](CN3CN(c4ccccc4)N=C(c4ccccc4)[C@@]23c2ccccc2)C(=O)N1c1ccccc1 | 2.94 µM (inactive) | 2.25 µM (inactive) | 14.3 µM (inactive) | 0.863 µM (active) | 1.61 µM (inactive) | 6.58 µM (inactive) | 2 µM (inactive) | 15.1 µM (inactive) | 2.36 µM (inactive) | 13.8 µM (inactive) | 2.61 µM (inactive) | 8.99 µM (inactive) | 16.7 µM (inactive) | 14 µM (inactive) | 1.45 µM (inactive) | 11.3 µM (inactive) | 18.8 µM (inactive) | 6.11 µM (inactive) | 5.07 µM (inactive) | 
O=C(Nc1nc2c(=O)[nH]cnc2s1)c1ccccc1 |  | 53.8 µM (inactive) |  | 43.6 µM (inactive) |  | > 100 µM (inactive) | > 100 µM (inactive) | > 100 µM (inactive) | 50.4 µM (inactive) | 71.8 µM (inactive) | 0.315 µM (active) | > 100 µM (inactive) | > 100 µM (inactive) | > 100 µM (inactive) | > 100 µM (inactive) | > 100 µM (inactive) | > 100 µM (inactive) | 81.7 µM (inactive) | > 100 µM (inactive) | > 100 µM (inactive)
Cc1nc2ccc(C(F)(F)F)cc2nc1Nc1ccc(Cl)c(Cl)c1 |  | 5.62 µM (inactive) |  |  | 8.17 µM (inactive) | 11.9 µM (inactive) | 12.7 µM (inactive) | 3.4 µM (inactive) | 4.68 µM (inactive) |  | 8.73 µM (inactive) | 6.46 µM (inactive) | 14.1 µM (inactive) | 18.9 µM (inactive) | 6.44 µM (inactive) | 12.2 µM (inactive) | 13.8 µM (inactive) | 7.14 µM (inactive) | 10.5 µM (inactive) | 14.1 µM (inactive)
Cc1ccc(S(=O)(=O)N(c2ccccc2F)C2CCCCC2O)cc1 (stereo unspecified) | 74.1 µM (inactive) | 23.3 µM (inactive) | 33.1 µM (inactive) |  | 36.9 µM (inactive) | 56.9 µM (inactive) | 64.4 µM (inactive) | > 100 µM (inactive) | 43 µM (inactive) |  | 24.4 µM (inactive) | 46.6 µM (inactive) | > 100 µM (inactive) | 22.3 µM (inactive) | 56.9 µM (inactive) | > 100 µM (inactive) | 38 µM (inactive) | 35.2 µM (inactive) | 18 µM (inactive) | > 100 µM (inactive)
CC1C2CC(C(C3C(=O)C4CC3C(C)(C)C4C)C2=O)C1(C)C (stereo unspecified) | > 100 µM (inactive) | > 100 µM (inactive) | > 100 µM (inactive) | > 100 µM (inactive) |  | > 100 µM (inactive) | > 100 µM (inactive) | > 100 µM (inactive) | > 100 µM (inactive) | > 100 µM (inactive) | > 100 µM (inactive) | > 100 µM (inactive) | > 100 µM (inactive) | > 100 µM (inactive) | > 100 µM (inactive) | > 100 µM (inactive) | > 100 µM (inactive) | > 100 µM (inactive) | > 100 µM (inactive) | > 100 µM (inactive)
N#Cc1ccccc1C(Cl)(Cl)c1cnccn1 |  | 28.6 µM (inactive) | 37.8 µM (inactive) | > 100 µM (inactive) |  | 74.8 µM (inactive) | 99.3 µM (inactive) | 47 µM (inactive) | 57.4 µM (inactive) | 44.1 µM (inactive) | 34 µM (inactive) | 34.8 µM (inactive) | 56.5 µM (inactive) | 61.1 µM (inactive) | 20 µM (inactive) | 51.2 µM (inactive) | 52.5 µM (inactive) | 83.9 µM (inactive) |  | 32.4 µM (inactive)
C[C@]12CC[C@H](OC(=O)Cc3ccc(N(CCCl)CCCl)cc3)CC1=CC[C@@H]1[C@@H]2CC[C@]2(C)C(=O)CC[C@@H]12 | > 100 µM (inactive) | > 100 µM (inactive) | > 100 µM (inactive) | > 100 µM (inactive) | > 100 µM (inactive) | > 100 µM (inactive) | > 100 µM (inactive) |  | > 100 µM (inactive) | > 100 µM (inactive) | 3.61 µM (inactive) | > 100 µM (inactive) | > 100 µM (inactive) |  |  | > 100 µM (inactive) | > 100 µM (inactive) | > 100 µM (inactive) |  | > 100 µM (inactive)

Reference: ChEMBL document CHEMBL1201862, “PubChem BioAssay data set” (2004)
